Broadly, the solubility is the concentration that dissolves in the medium under given conditions. Read a high solubility as much dissolved substance.

Converted amounts (≈) assume the structure as drawn.

Our source for the solubility values is patent US8168668B2, “Compounds” (AstraZeneca AB, priority 2005, dated 2012).

A short description of the series: aqueous solubility test. It counts as physicochemical. To be noted: aqueous medium, pH 7.4, aqueous buffer.
With `C[C@H](NC(=O)Cn1cnc2cccc([N+](=O)[O-])c21)c1ccc(OCCF)cc1` [Example 3, N-{(1S)-1-[4-(2-fluoroethoxy)phenyl]ethyl}-2-(7-nitro-1H-benzimidazol-1-yl)acetamide], the solubility came out at 90 µM (≈ 34.8 µg/mL).

As to `COCC(C)Oc1ccc([C@H](C)NC(=O)Cn2cnc3cccc([N+](=O)[O-])c32)cc1` (stereo partly drawn) [Example 5, N-{(1S)-1-[4-(2-methoxy-1-methylethoxy)phenyl]ethyl}-2-(7-nitro-1H-benzimidazol-1-yl)acetamide], the concentration in solution (solubility) came to 97 µM (≈ 40 µg/mL).

Compound `CCOc1ccc([C@H](C)NC(=O)Cn2cnc3cccc([N+](=O)[O-])c32)cc1` [Example 6, N-[(1S)-1-(4-ethoxyphenyl)ethyl]-2-(7-nitro-1H-benzimidazol-1-yl)acetamide] yielded a solubility of 72 µM (≈ 26.5 µg/mL).

Compound `CC(NC(=O)Cn1cnc2cccc([N+](=O)[O-])c21)c1ccc(OCC(F)F)nc1` (stereo not drawn) [Example 9, N-{1-[6-(2,2-difluoroethoxy)pyridin-3-yl]ethyl}-2-(7-nitro-1H-benzimidazol-1-yl)acetamide] gave a solubility of 98 µM (≈ 39.7 µg/mL).

In turn, `CC(NC(=O)Cn1cnc2cccc([N+](=O)[O-])c21)c1ccc(OCC(F)(F)F)cc1` (stereo not drawn) [Example 14, 2-(7-nitro-1H-benzimidazol-1-yl)-N-{1-[4-(2,2,2-trifluoroethoxy)phenyl]ethyl}acetamide] gave a solubility of 63 µM (≈ 26.6 µg/mL).

For `CC(NC(=O)Cn1cnc2cccc([N+](=O)[O-])c21)c1ccc(OCC(F)F)cc1` (stereo not drawn) [Example 19, N-{1-[4-(2,2-difluoroethoxy)phenyl]ethyl}-2-(7-nitro-1H-benzimidazol-1-yl)acetamide], the concentration in solution (solubility) was 75 µM (≈ 30.3 µg/mL).

`CC(NC(=O)Cn1cnc2cccc(C#N)c21)c1ccc(OC(CF)CF)cc1` (stereo not drawn) [Example 24, 2-(7-cyano-1H-benzimidazol-1-yl)-N-(1-{4-[2-fluoro-1-(fluoromethyl)ethoxy]phenyl}ethyl)acetamide] gave a solubility of 94 µM (≈ 37.5 µg/mL).

The compound `CCC(NC(=O)Cn1cnc2cccc([N+](=O)[O-])c21)c1ccc(C(F)(F)F)cn1` (stereo not drawn) [Example 29, 2-(7-nitro-1H-benzimidazol-1-yl)-N-{1-[5-(trifluoromethyl)pyridin-2-yl]propyl}acetamide] showed a solubility of 92 µM (≈ 37.5 µg/mL).

In turn, `CC(NC(=O)Cn1cnc2cccc([N+](=O)[O-])c21)c1ccc(C(F)(F)F)cn1` (stereo not drawn) [Example 30, 2-(7-nitro-1H-benzimidazol-1-yl)-N-{1-[5-(trifluoromethyl)pyridin-2-yl]ethyl}acetamide] had a solubility of 97 µM (≈ 38.2 µg/mL).

`CC(NC(=O)Cn1cnc2cccc(Cl)c21)c1ncc(C(F)(F)F)cc1Cl` (stereo not drawn) [Example 31, 2-(7-chloro-1H-benzimidazol-1-yl)-N-{1-[3-chloro-5-(trifluoromethyl)pyridin-2-yl]ethyl}acetamide]: the solubility was 87 µM (≈ 36.3 µg/mL).

`CC(NC(=O)Cn1cnc2cccc([N+](=O)[O-])c21)c1ncc(C(F)(F)F)cc1Cl` (stereo not drawn) [Example 32, N-{1-[3-chloro-5-(trifluoromethyl)pyridin-2-yl]ethyl}-2-(7-nitro-1H-benzimidazol-1-yl)acetamide] yielded a solubility of 87 µM (≈ 37.2 µg/mL).

In turn, `CC(C)Oc1ccc(C(C)NC(=O)Cn2cnc3cccc(Cl)c32)cn1` (stereo not drawn) [Example 35, 2-(7-chloro-1H-benzimidazol-1-yl)-N-[1-(6-isopropoxypyridin-3-yl)ethyl]acetamide] showed a solubility of 100 µM (≈ 37.3 µg/mL).

`CC(C)Oc1ccc(C(C)NC(=O)Cn2cnc3cccc([N+](=O)[O-])c32)cn1` (stereo not drawn) [Example 38, N-[1-(6-isopropoxypyridin-3-yl)ethyl]-2-(7-nitro-1H-benzimidazol-1-yl)acetamide]: the solubility worked out at 86 µM (≈ 33 µg/mL).

On to `C#Cc1ccc(C(C)NC(=O)Cn2cnc3cccc([N+](=O)[O-])c32)cc1` (stereo not drawn) [Example 41, N-[1-(4-ethynylphenyl)ethyl]-2-(7-nitro-1H-benzimidazol-1-yl)acetamide], for which the solubility turned out to be 82 µM (≈ 28.6 µg/mL).

In turn, `C#Cc1ccc(C(C)NC(=O)Cn2cnc3cccc(Cl)c32)cc1` (stereo not drawn) [Example 42, 2-(7-chloro-1H-benzimidazol-1-yl)-N-[1-(4-ethynylphenyl)ethyl]acetamide] had a solubility of 77 µM (≈ 26 µg/mL). This solubility and that of the compound before are within 1.5-fold of each other.
